Our source for the inhibition values is patent US10266545B2, “Coumarin derivative as antiviral agent, pharmaceutical composition thereof, its preparation and use” (I-NOVA MEDICINSKA ISTRAZIVANJA D.O.O., priority 2016, dated 2019).

For this assay, the target named is T1, rRT (exogenous recombinant RT) (Human immunodeficiency virus type 1 group M subtype B, UniProt P03366).
T1 construct: recombinant RT was added with a known activity and concentration; purchased Cavidi (Sweden) 52010
The assay is described as follows: Direct effect on exogenous recombinant RT (rRT), HS-Lenti RT activity kit. Type of assay: biochemical, HIV-1. To be noted: for inhibition at 10 µM: 0.01 mM. The method, then:
The RT test was performed by using HS-Lenti RT activity kit test provided by Cavidi (Sweden) for direct study of inhibitory effect of rRT. HS-Lenti RT activity assay provides an opportunity for direct determination of the effects of the test compound 1 and the control compound 2 on the activity of rRT, of known concentrations. […] Such opportunity is provided by the test kit manufacturer, see literature reference 10: • 10) X. Shao, D. Ekstrand, R. Bhikhabhai, C. Kallander, J. Gronowitz: A non-radioactive microtitre plate reverse transcriptase (RT) assay, based on immobilized template, for screening of RT activity inhibitors and evaluation of the mode of action, Antiviral Chem. Chemother. 8 (1997) 149-159.
For the control, commonly used substance with proven antiviral activity was employed; in our case, we used Kivexa, which contains 600 mg Abacavir and 300 mg of Lamivudine, which is applied in clinical practice as nucleoside inhibitor of RT. In the presence of RT inhibition in the test, it is concluded that not only the replication of the virus is inhibited, but also probably the target of the inhibitory effect is RT itself. To confirm this conclusion, it is necessary that percentage (%) of inhibition of the RT coincides with the % inhibition in the microtiter MTT assay. […] After incubation, we determined whether the activity of the enzyme shall be amended (inhibited) by action of the compounds 1 or 2. […]
The procedure was as follows: In wells of a company plate coated with a matrix poly-rA, are added reaction mixture to RT, the primer containing oligo-dT, Brd UTP as a source of dNTP and prepared at buffer of the commercial test 10× more concentrated (as reaction mixture was in a volume of 100 μl) of the test substance dilutions. […] Manifestation of the enzyme reaction was carried out using a suitable substrate for alkaline phosphatase for 30 minutes and then the absorbance was detected at a wavelength of 405 nm. […]

Turning to `O=c1oc2cc(O)cc(O)c2c(O)c1-c1coc2c1c(=O)oc1cc(O)cc(O)c12` [Compound 1, 7,9-dihydroxy-3-(4,5,7-trihydroxy-2-oxo-2H-chromene-3-yl)-4H-furo[3,2-c]chromen-4-one], the inhibition at 10 µM was 72.8%. For the same molecule, the inhibition at 5 µM (0.005 mM) turned out to be 0%.

Take `O=c1oc2cc(O)c(O)cc2c(O)c1-c1coc2c1c(=O)oc1cc(O)c(O)cc12` [Compound 2, 7,8-dihydroxy-3-(4,6,7-trihydroxy-2-oxo-2H-chromen-3-yl)-4H-furo[3,2-c]chromen-4-one, reference compound]: the inhibition at 10 µM was determined as 0%.

In general, inhibition refers to the change of the read-out against control, counted positive when it falls.
